Test results as given in US10238593B2, “System and method for preventing alopecia” (FOLLEA INTERNATIONAL, priority 2014, dated 2019).

Assays:
scalp hair follicles = assay: Epilation force measured with trichotillometer (Example 5); type: in vivo, human; settings: average of 10 subjects
Experimental: To evaluate the effect of a topically applied α1-AR agonist on the force required to pluck hairs from the scalp, a hand-held spring dynamometer, or “trichotillometer” was used (8). The trichotillometer records the maximum force threshold, in grams, required to pluck a single hair from the scalp; the performance and statistical variance of the instrument have been reported previously (8-10). Force measurements were performed using the trichotillometer on 10 subjects. The frontal area of scalp was divided into two 8×10 cm2 areas. On the right side 0.5 mL of a placebo vehicle was applied. […] After 45 minutes, ten hairs were plucked from each of the target areas with the trichotillometer.

scalp hair = assay: Hair shedding: hairs removed with brush, 4-day protocol (Example 5); type: in vivo, human
Description: Patients: Fifteen female subjects, ages 18-40, were included in the study. Subjects were recruited based on their frequent use of traumatic hair care practices, such as, tight braids, head scarves, ponytails, extensions, hair rollers, hair weaves and heated styling appliances such as blow dryers, flat irons, heat setters and curling irons. Subjects with uncontrolled hypertension, that were pregnant or breastfeeding, had been diagnosed with pattern hair loss or with other hair loss in conjunction with female pattern hair loss were excluded from the study. […] Piloerection and blanching were visible after 30 minutes; the effect lasted for approximately 2-3 hours.
Hair Shedding: To measure hair loss during cosmetic procedures, a 4-day protocol was designed. On the first day patients were instructed to wash their hair and use styling products and procedures as they normally would. On the second day, patients were instructed not to wash their hair and to apply 0.5 mL of a placebo solution, containing a vehicle only, on the frontal area of the scalp in an 8×10 cm2 target area. Patients were instructed to wait 45 minutes, after which, they brushed their hair 20 times from the front of the scalp to the bottom of head using a new brush. After the procedure, the brushes were sealed in a plastic bag. […] After each clinical procedure, the investigator counted the hairs collected on each brush. […]

## CNC[C@H](O)c1cccc(O)c1 [phenylephrine]
Scalp hair follicles
  AVERAGE increase of epilation force threshold vs placebo: approximately 172%
Scalp hair; 15 female subjects, blinded study
  subjects with reduced shedding compared to placebo: 80%
Scalp hair; average of 15 subjects
  AVERAGE reduction in hair loss vs placebo: approximately 42%
